Target: TycA-S563A (Brevibacillus parabrevis, UniProt P09095, S563A)
Details: for kcat^NAC: TycA-S563A with NAC at apparent saturation
Procedure: Substrates (S)-α-phenylalanine, (R)-β-phenylalanine, and (2R,3S)-phenylisoserine (each at 1 mM) were separately incubated with TycA or TycA-S563A (20 μg) in the presence of N-acetylcysteamine (NAC; 1 mM), ATP (1 mM), and Mg^2+ (3 mM) to establish steady-state conditions with respect to protein concentration and time at 31° C. Under steady-state conditions, either (S)-phenylalanine, (R)-β-phenylalanine, or (2R,3S)-phenylisoserine at 5, 10, 20, 40, 80, 160, 250, 500, 1000 and 2000 μM was separately incubated with TycA or TycA-S563A (20 μg), ATP (1 mM), Mg^2+ (3 mM), and N-acetylcysteamine (1 mM, ‘NAC’) in duplicate, single stopped-time ([…]) 100 μL assays. The reactions were quenched by acidification to a pH of about 2 (10% formic acid in distilled water). (N-Boc)-α-phenylalanyl-SNAC (1 μM) was added as an internal standard when (S)-α-phenylalanine or (2,3)-phenylisoserine was used as the substrate; alternatively, (N-Boc)-β-phenylalanyl-SNAC (1 μM) was added as an internal standard when (R)-β-phenylalanine was used as the substrate (the synthesis is described below). The samples were analyzed on a Quattro-Premier Electro-Spray Mass Spectrometer coupled with Acquity® UPLC system fitted with a C18 Ascentis Express column (2.5×50 mm, 2.7 μm) at 30° C. An aliquot (5 μL) of each sample was loaded onto the column and the analytes were eluted with a solvent gradient of […] 0.05% triethylamine in distilled water (Solvent B) (held at 2.5% Solvent A for […], increased to 100% A over 5 sec with a 2-min hold, and then returned to 2.5% Solvent A over 5 sec with a 50-sec hold) at a flow rate of 0.4 mL/min. In brief, the effluent from the chromatography column was directed to the Quattro Premier ESI mass spectrometer, in MRM scan mode, to quantify the biosynthetic acyl SNAC products. The transition ions derived from the corresponding molecular ions were m/z 120.06, 131.10 and 105.95 for (S)-α-phenylalanyl-SNAC, (R)-β-phenylalanyl-SNAC and (2R,3S)-phenylisoserinyl-SNAC, respectively. A standard curve was used to convert the peak area under the curve of the monitored fragment ion to concentration for each biosynthetic phenylpropionyl SNAC.
Authentic (5)-α-phenylalanyl, (R/S)-β-phenylalanyl- and (2R,3S)-phenylisoserinyl-SNAC were used to construct the standard curves by correlating the peak area under the curve of the monitored ion to concentration of the standard (at 0.16, 0.32, 0.64, 1.3, 2.5, 5, 10, 20, 40, 80, 160 and 320 μM) using linear regression analysis.
The KM values of TycA and TycA-S563A for N-acetylcysteamine (NAC) was assessed by incubating each enzyme separately with (S)-α-phenylalanine (1 mM), MgCl2 (3 mM), ATP (1 mM), and N-acetylcysteamine at 5, 10, 20, 40, 80, 160, 250, 500, 1000 and 2000 μM at 31° C. for 20 min. The reactions were quenched by acidification to a pH of about 2 (10% formic acid in distilled water), and an internal standard, (N-Boc)-α-phenylalanyl-SNAC (1 μM), was added to each sample to correct for variations of the analyte. The [S-(acyl)-N-(acetyl)]cysteamine (SNAC) thioester products of the enzyme-catalyzed reaction were quantified by a liquid chromatography multiple reaction monitoring (MRM) mass spectrometry technique, and the monitored fragment ion (m/z 120) derived from the SNAC moiety of thioester analyte in the effluent was quantified identically to the procedure described earlier.

[1] = NAC with (S)-α-Phe as cosubstrate

Sequence of TycA-S563A (P09095 other isoform, or with tags, fused parts or gaps S563A): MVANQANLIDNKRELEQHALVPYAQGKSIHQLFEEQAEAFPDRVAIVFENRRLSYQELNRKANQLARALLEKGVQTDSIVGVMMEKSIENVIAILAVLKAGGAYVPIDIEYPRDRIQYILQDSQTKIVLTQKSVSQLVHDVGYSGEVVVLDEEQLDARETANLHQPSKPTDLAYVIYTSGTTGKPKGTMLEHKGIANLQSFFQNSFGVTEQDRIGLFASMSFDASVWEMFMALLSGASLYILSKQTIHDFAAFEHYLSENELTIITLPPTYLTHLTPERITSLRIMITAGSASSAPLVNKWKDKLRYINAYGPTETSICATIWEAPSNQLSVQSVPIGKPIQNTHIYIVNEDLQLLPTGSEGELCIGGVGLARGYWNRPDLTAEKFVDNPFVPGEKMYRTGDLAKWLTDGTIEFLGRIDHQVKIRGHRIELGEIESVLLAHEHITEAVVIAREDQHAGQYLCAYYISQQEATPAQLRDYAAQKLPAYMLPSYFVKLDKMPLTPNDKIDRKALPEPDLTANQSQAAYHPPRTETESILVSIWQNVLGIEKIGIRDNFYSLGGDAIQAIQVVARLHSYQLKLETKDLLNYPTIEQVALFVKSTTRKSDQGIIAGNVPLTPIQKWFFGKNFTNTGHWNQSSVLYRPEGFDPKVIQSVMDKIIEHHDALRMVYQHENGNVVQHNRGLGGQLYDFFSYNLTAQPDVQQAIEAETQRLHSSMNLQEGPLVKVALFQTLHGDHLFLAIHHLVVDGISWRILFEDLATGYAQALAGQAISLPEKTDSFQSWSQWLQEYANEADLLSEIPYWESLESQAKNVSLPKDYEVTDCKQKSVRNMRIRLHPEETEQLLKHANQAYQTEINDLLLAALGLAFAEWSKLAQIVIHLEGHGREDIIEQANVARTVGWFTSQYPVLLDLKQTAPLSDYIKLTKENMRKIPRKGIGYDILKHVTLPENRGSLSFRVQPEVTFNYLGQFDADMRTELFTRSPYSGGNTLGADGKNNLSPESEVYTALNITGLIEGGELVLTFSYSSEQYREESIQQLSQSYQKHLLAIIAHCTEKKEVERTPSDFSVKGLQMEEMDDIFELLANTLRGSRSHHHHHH

Structure (SMILES) | kcat^NAC [1] [s⁻¹] | Km (TycA-S563A with NAC, NAC with (S)-α-Phe as cosubstrate) [µM] | decrease in turnover, TycA-S563A compared to TycA (NAC cosubstrate) [fold] | increase in KM, TycA-S563A compared to TycA (NAC cosubstrate) [fold] | lower catalytic efficiency of TycA-S563A compared to that of TycA (NAC cosubstrate) [fold]
N[C@@H](c1ccccc1)[C@@H](O)C(=O)O [(2R,3S)-PheIso, (2R,3S)-phenylisoserine] | 0.00517 ± 0.00083 | 512 ± 43 |  |  | 
N[C@H](CC(=O)O)c1ccccc1 [(R)-β-Phe, (R)-β-phenylalanine] | 0.0004 ± 1.7e-05 |  | 15 | ~2 | ~30
